Data on nine molecules can be found in publication PMC3104989 (PLoS ONE, 2011).

Experiment [1] deals with T1, Hog1 (Saccharomyces cerevisiae, UniProt P32485).
T1 sequence (P32485 2-435): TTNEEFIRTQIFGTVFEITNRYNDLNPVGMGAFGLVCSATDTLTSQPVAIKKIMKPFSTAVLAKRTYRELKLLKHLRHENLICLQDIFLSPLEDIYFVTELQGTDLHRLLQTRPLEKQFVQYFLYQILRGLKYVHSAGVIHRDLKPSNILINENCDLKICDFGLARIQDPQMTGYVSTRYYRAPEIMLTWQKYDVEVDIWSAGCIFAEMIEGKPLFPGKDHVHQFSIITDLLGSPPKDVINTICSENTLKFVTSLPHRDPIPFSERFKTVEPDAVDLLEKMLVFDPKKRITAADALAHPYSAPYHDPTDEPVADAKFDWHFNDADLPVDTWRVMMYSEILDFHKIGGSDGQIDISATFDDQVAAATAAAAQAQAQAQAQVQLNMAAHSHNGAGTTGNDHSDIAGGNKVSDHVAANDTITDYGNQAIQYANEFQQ
Briefly: in vitro radiometric kinase assay, single dose […]. It counts as biochemical.

For experiment [2], the target named is T1, Hog1. Briefly: in vitro radiometric kinase assay with biotinylated Sic1 peptide. It counts as biochemical.

In turn, `Fc1ccc(-c2nnn(CC3CC3)c2-c2ccncc2)cc1` [1a] came in with a remaining activity at 0.1 µM on Hog1 [1] of 50 to 70%.

Take `c1ccc(Cn2nnc(-c3ccccc3)c2-c2ccncc2)cc1` [1b]: the remaining activity at 0.1 µM on Hog1 [1] lay in the range of 50 to 70%.

`Fc1ccc(-c2nnn(Cc3ccccc3)c2-c2ccncc2)cc1` [1c] came in with a remaining activity at 0.1 µM at Hog1 [1] of 50 to 70%.

On Hog1 [1], `Clc1ccc(-c2nnn(Cc3ccccc3)c2-c2ccncc2)cc1` [1d] had a remaining activity at 0.1 µM of 50 to 70%.

Consider `Brc1ccc(-c2nnn(Cc3ccccc3)c2-c2ccncc2)cc1` [1e], for which the remaining activity at 0.1 µM on Hog1 [1] was in the range of 50 to 70%.

On to `CC(C)Nc1cc(-c2c(-c3ccccc3)nnn2Cc2ccccc2)ccn1` [4a, 4-(1-benzyl-4-phenyl-1H-1,2,3-triazol-5-yl)-N-isopropylpyridin-2-amine], for which the IC50 against Hog1 [2] worked out at 7.4 ± 0.41 nM.

In turn, `CC(C)Nc1cc(-c2c(-c3ccc(F)cc3)nnn2Cc2ccccc2)ccn1` [4b, 4-(1-benzyl-4-(4-fluorophenyl)-1H-1,2,3-triazol-5-yl)-N-iso-propyl-pyridin-2-amine] came in with a half-inhibitory concentration (IC50) against Hog1 [2] of 6.2 ± 2.2 nM.

In the case of `CC1CCC(Nc2cc(-c3c(-c4ccc(F)cc4)nnn3Cc3ccccc3)ccn2)CC1` (stereo not drawn) [4d, 4-(1-benzyl-4-(4-fluorophenyl)-1H-1,2,3-triazol-5-yl)-N-(4-methyl-cyclohexyl)pyridin-2-amine], on Hog1 [1], the remaining activity at 0.1 µM is 35 to 40%.

On Hog1 [1], `C[C@H](Nc1cc(-c2c(-c3ccc(F)cc3)nnn2Cc2ccccc2)ccn1)c1ccccc1` [4e, (S)-4-(1-benzyl-4-(4-fluorophenyl)-1H-1,2,3-triazol-5-yl)-N-(1-phenylethyl)pyridin-2-amine] had a remaining activity at 0.1 µM of 35 to 40%.

As usually defined, the remaining activity is the share of the control activity or signal that is left under treatment. A lower remaining activity goes with a large loss of activity. In general, IC50 refers to the concentration at which inhibition is half-maximal.
